Paper PMC5437278, “Targeting the deubiquitinase STAMBP inhibits NALP7 inflammasome activity” (Nature Communications, 2017)

Target: T1, STAMBP (purified, recombinant) (Homo sapiens, UniProt O95630)
T1 construct: commercial purified recombinant STAMBP (R&D Systems E-548B)
T1 sequence (O95630 1-424): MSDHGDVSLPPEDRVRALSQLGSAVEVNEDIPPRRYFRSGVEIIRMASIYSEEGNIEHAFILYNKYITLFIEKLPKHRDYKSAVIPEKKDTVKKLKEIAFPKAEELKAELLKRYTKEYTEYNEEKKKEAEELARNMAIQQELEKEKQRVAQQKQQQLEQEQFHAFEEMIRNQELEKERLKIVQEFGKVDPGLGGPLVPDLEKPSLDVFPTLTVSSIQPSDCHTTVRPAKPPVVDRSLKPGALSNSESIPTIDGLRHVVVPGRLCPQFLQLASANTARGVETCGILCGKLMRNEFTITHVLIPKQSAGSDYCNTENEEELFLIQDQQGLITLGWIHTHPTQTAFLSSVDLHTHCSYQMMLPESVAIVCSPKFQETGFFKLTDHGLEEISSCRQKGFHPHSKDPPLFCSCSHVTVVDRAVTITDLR
Experiment: in vitro DUB assay, cleavage of K63-linked di-ubiquitin to mono-Ub, immunoblot
Type: biochemical
Conditions: 200 nM K63-linked di-Ub, 25 nM STAMBP, pH 7.5, 37 °C, 2 h; competitive

Substance: BC-1471
- IC50: 330 nM
